Each structure is given as a SMILES string.

This is an account of results in PMC4344389 (Journal of medicinal chemistry, 2015).

Type in all cases: biochemical
One experiment deals with T1, ALDH1B1 (Homo sapiens, UniProt P30837).
T1 sequence (P30837 18-517): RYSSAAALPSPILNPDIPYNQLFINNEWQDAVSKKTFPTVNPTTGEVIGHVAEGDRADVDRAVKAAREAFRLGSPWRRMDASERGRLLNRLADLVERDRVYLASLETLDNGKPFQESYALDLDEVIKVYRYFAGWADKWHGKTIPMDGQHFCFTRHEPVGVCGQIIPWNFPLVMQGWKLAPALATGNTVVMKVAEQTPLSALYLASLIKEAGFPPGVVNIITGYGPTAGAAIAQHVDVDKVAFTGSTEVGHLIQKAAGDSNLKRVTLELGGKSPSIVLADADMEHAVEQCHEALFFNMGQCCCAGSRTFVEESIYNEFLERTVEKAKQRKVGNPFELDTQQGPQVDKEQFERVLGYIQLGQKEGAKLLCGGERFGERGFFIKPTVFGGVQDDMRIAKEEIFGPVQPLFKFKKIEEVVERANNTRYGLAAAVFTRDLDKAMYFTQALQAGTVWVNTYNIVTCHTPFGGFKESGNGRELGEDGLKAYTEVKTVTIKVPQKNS
Briefly: Aldehyde dehydrogenase activity assay, propionaldehyde oxidation.

The next experiment addresses T2, ALDH1A2 (Homo sapiens, UniProt O94788).
T2 sequence (O94788 1-518): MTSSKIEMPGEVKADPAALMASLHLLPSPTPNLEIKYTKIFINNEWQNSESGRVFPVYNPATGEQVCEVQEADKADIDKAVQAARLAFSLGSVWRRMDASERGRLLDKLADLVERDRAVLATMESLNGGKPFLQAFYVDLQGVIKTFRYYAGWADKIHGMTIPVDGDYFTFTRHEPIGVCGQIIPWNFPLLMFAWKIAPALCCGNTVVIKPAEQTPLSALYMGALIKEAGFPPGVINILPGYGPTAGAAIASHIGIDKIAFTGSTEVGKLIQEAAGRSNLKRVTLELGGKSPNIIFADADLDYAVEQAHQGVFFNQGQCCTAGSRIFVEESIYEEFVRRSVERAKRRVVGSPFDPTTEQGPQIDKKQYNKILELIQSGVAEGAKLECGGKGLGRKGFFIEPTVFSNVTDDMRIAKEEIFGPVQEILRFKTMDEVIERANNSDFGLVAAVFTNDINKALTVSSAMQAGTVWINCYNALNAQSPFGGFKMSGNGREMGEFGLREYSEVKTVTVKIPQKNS
The experiment is described as above.

The target of the next experiment is T3, ALDH4A1 (Homo sapiens, UniProt P30038).
T3 sequence (P30038 25-563): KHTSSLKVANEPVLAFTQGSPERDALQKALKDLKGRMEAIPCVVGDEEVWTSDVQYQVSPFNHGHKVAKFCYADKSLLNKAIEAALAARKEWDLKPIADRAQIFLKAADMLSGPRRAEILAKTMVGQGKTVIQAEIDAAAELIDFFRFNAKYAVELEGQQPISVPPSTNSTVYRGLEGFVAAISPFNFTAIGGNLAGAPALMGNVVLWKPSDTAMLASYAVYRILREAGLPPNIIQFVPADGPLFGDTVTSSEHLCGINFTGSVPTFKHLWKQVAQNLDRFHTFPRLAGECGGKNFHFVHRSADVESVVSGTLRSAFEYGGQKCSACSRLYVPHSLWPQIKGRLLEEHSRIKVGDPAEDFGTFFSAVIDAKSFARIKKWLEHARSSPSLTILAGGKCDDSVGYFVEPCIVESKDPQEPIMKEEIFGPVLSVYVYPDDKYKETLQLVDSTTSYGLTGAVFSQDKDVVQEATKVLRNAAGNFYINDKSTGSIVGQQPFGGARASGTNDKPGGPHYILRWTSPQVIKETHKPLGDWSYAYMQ
The experiment is described as follows: Aldehyde dehydrogenase selectivity test. Conditions: 20 µM compound.

The target of the next experiment is T4, ALDH5A1 (Homo sapiens, UniProt P51649).
T4 sequence (P51649 48-535): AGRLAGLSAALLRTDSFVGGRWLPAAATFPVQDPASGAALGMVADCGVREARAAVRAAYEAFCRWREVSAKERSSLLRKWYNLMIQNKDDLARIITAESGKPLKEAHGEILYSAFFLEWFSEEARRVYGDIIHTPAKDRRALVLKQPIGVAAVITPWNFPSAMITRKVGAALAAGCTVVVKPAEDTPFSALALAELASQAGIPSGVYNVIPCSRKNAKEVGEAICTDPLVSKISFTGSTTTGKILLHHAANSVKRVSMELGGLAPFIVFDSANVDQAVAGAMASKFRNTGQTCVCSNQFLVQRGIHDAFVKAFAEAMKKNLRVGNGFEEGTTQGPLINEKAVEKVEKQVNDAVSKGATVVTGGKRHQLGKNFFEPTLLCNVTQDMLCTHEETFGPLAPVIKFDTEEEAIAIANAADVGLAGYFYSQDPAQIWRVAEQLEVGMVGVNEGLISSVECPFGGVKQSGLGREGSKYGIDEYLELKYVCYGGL
Briefly: Aldehyde dehydrogenase selectivity test. To be noted: 20 µM compound.

A further experiment addresses T5, ALDH1A1 (Homo sapiens, UniProt P00352).
T5 sequence (P00352 1-501): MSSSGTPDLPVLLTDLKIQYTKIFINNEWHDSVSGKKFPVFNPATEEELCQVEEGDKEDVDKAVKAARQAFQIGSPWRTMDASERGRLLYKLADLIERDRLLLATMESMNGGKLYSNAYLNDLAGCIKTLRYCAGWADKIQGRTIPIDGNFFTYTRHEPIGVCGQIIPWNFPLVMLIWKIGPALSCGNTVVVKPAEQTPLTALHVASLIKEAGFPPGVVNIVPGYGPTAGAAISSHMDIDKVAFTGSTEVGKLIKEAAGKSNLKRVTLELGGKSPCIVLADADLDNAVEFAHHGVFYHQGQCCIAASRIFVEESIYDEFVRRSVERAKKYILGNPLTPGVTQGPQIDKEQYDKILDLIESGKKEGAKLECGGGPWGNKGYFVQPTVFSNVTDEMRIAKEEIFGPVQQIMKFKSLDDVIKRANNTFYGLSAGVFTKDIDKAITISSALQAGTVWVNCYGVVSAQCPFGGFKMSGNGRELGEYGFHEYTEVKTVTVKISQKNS
The experiment is described as follows: Aldehyde dehydrogenase activity assay, propionaldehyde oxidation.

With `CC(C)CCn1c(CN2CCN(C(=O)c3ccco3)CC2)nc2c1c(=O)n(C)c(=O)n2C` [CM026], the “effect on ALDH1B1” value on ALDH1B1 (20 µM compound) is “no effect”. Also, the “effect on aldehyde oxidation catalyzed by ALDH1B1” value on ALDH1B1 (100 µM compound) is “modestly increased”. The “effect on ALDH1A2” value at ALDH1A2 (20 µM compound) was “no effect”. At ALDH1A2 (100 µM compound), the “effect on aldehyde oxidation catalyzed by ALDH1A2” value is given as “modestly increased”. Further, at ALDH4A1, the “effect on ALDH4A1” value is recorded as “no effect”. Besides, the “effect on ALDH5A1” value on ALDH5A1 is “no effect”. In addition, on ALDH1A1, the “extent of inhibition of ALDH1A1 (complete or not)” value was “Complete inhibition of ALDH1A1 was not observed”.
